Columns and labels:
CASP3 (caspase-3) = experiment: Gene expression experiment (real-time PCR) in SH-SY5Y cells: CASP3; type: cell-based; details: for expression of CASP3: 24 h
Protocol: SH-SY5Y cells were seeded in 100 mm-cell dishes (BD Biocoat) at concentrations of 3.7×10^5 cells/mL (10 mL/dish) and cultured for 24 h at 37° C. and 5% CO2. Culture medium used was F12/DMEM (Gibco) supplemented with 1% non-essential amino acids (Gibco), 15% FBS (Bio West), and 1% penicillin/streptomycin (Lonza). After 24 h, the culture medium was completely removed with an aspirator, 10 mL of culture medium Opti-MEM(Gibco) was added to each dish, and the cells were cultured for 24 h at 37° C. and 5% CO2. RNA was extracted from the culture cells and analyzed for the expression of genes described below by real-time PCR (designated as “Control” in FIGS. 2 to 8).
RNA extraction was performed using ISOGEN Reagent (Nippon Gene Co., Ltd.) in accordance with the protocol recommended by Nippo n Gene Co., Ltd. (see URL: https://www.nippongene.com/siyaku/product/extraction/tds/tds_isogen-rna-dna-protein.pdf). Real-time PCR was performed according to the protocol recommended by Thermo Fisher Scientific using a reagent kit for TaqMan Real-Time PCR (Thermo Fisher Scientific) (see URL: https://assets.thermofisher.com/TFS-Assets/LSG/manuals/4304449_TaqManPCRMM_UG.pdf).
24 h after seeding 100 mm-cell dishes (BD Biocoat) with SH-SY5Y cells, the culture medium was completely removed with an aspirator, amyloid β protein (Beta-Amyloid 1-42, AnaSpec) was mixed with Opti-MEM (Gibco) so that the final concentration was 5 μM, 10 mL of the mixture was added to each dish, the cells were cultured for 24 h at 37° C. and 5% CO2, and RNA was extracted. Except for performing the procedure described above, gene expression was analyzed as described above (designated as “Aβ” in FIGS. 2 to 8).
24 h after seeding 100 mm-cell dishes (BD Biocoat) with SH-SY5Y cells, the culture medium was completely removed with an aspirator, Sample 1 was mixed with culture medium Opti-MEM(Gibco) so that the final concentration was 12.56 μM, 9,990 μL of the mixture was added to each dish and allowed to stand for 10 min, amyloid β protein (Beta-Amyloid 1-42, AnaSpec) was mixed with Opti-MEM (Gibco) so that the final concentration was […], 10 μL of the mixture was added to each well, the cells were cultured for 24 h at 37° C. and 5% CO2, and RNA was extracted. Except for performing the procedure described above, Gene expression was analyzed as described above (designated as “Aβ+M3,5G” in FIGS. 2 to 8).
Except that Sample 2 was used instead of Sample 1, gene expression was analyzed as described above (designated as “Aβ+M” in FIGS. 2 to 8).
Except that Sample 3 was used instead of Sample 1, gene expression was analyzed as described above (designated as “Aβ+M3G” in FIGS. 2 to 8).
24 h after seeding 100 mm-cell dishes (BD Biocoat) with SH-SY5Y cells, the culture medium was completely removed with an aspirator, 10 mL of culture medium Opti-MEM(Gibco) mixed with Sample 1 was added to each dish, the cells were cultured for 24 h at 37° C. and 5% CO2, and RNA was extracted. Except for performing the procedure described above, gene expression was analyzed as described above (designated as “M3,5G” in FIGS. 2 to 8).

SH-SY5Y cells = experiment: Cell survival experiment (MTT), cell death induced by amyloid β protein; type: cell-based; details: compound 12.56 μM, 72 h, compared to “Aβ”
Protocol: Each well of a 96-well plate (BD Biocoat) was seeded with SH-SY5Y cells (model of neuronal cells, ATCC) at a concentration of 2×10^5 cells/mL (100 μL/well) and the cells were cultured at 37° C. and 5% CO2 for 24 h. Culture medium used was F12/DMEM (Gibco) supplemented with 1% non-essential amino acids (Gibco), 15% FBS (Bio West), and 1% penicillin/streptomycin (Lonza).
After 24 h, the culture medium was completely removed with an aspirator, 100 μL of culture medium Opti-MEM (Gibco) was added to each well, and the cells were cultured at 37° C. and 5% CO2 for 24 h. […]
Absorbance at 570 nm was measured on a microplate reader (Sumitomo Dainippon Pharma) to measure the MTT formazan production to calculate % relative cell survival (designated as “Control” in FIG. 1).
24 h after seeding a 96-well plate (BD Biocoat) with SH-SY5Y cells, the culture medium was completely removed with an aspirator, amyloid β protein (Beta-Amyloid 1-42, AnaSpec) was mixed with Opti-MEM (Gibco) so that the final concentration was 15 μM, 100 μL of the mixture was added to each well, and the cells were cultured at 37° C. and 5% CO2 for 72 h to induce cell death. Except for performing the procedure described above, the MTT formazan production was measured as described above to calculate % relative cell survival (designated as “Aβ” in FIG. 1). […]

COc1cc(-c2[o+]c3cc(O)cc(OC4OC(CO)C(O)C(O)C4O)c3cc2OC2OC(CO)C(O)C(O)C2O)cc(OC)c1O (centres unmarked) [M3,5G, Malvidin-3,5-diglucoside chloride]
expression of CASP3 (CASP3 (caspase-3); 12.56 μM, amyloid β protein-treated cells, compared to “Aβ”): significantly low | expression of CASP3 (CASP3 (caspase-3); 12.56 μM, amyloid β protein-treated cells, compared to “Control”): significantly low | expression of CASP3 (CASP3 (caspase-3); Sample 1 alone, no amyloid β, compared to “Control”): significantly decreased | activity in decreasing the expression of CASP3 (CASP3 (caspase-3); amyloid β protein-treated cells, 12.56 μM, ranked against malvidin and malvidin-3-glucoside): highest activity | % relative cell survival (SH-SY5Y cells): significantly high
